Results from article PMC8165021 (Bioorganic & medicinal chemistry letters, 2021).
Blank lines part the entries; values can stand above or below the compound they belong to.

Assays:
D3R [1] = target: T1, D3R (Homo sapiens, UniProt P35462); assay: Radioligand binding at D3R; conditions: for D3R selectivities versus the other dopamine receptors tested: versus D1R, D2R, D4R, D5R
D3R [2] = target: T1, D3R; conditions: flexible n-butyl linker compound from previous study; ref [19]; cited from earlier work

T1 sequence (P35462 whole entry): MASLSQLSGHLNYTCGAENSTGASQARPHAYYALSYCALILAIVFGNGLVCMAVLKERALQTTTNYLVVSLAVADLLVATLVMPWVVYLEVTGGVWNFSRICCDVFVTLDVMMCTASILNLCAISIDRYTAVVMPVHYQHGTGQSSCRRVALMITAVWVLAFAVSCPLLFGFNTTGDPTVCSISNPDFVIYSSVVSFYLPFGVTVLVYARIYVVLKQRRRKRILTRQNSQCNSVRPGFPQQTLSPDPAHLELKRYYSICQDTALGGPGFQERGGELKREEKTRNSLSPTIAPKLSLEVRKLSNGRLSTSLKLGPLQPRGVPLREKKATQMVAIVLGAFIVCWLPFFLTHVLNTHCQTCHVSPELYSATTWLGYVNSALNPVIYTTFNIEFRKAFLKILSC

Compound: COc1cc2c(cc1O)CN(Cc1ccccc1CNC(=O)c1cccc(C#N)c1)CC2 [5i]
- D3R selectivity versus D4R (D3R [1]; ratio of Ki values): > 100 fold

Compound: O=C(NCc1ccccc1CN1CCc2cc(O)c(O)cc2C1)c1cccc(Br)c1 [6a]
- D3R selectivity versus D1R, D2R and D4R (D3R [1]): < 50 fold

Compound: COc1cc2c(cc1O)CN(CCCCNC(=O)c1ccc(C#N)cc1)CC2 [compound 1]
- selectivity for D3R over σ2R (D3R [2]): good selectivity

The next lines start with the values.

- D3R selectivities versus the other dopamine receptors tested (D3R [1]): 15- to 420 fold
Compound: COc1cc2c(cc1OC)CN(Cc1ccccc1CNC(=O)c1cccc(C#N)c1)CC2 [5s]

- D3R selectivities versus the other dopamine receptors tested (D3R [1]): 15- to 420 fold
Compound: COc1cc2c(cc1OC)CN(Cc1ccccc1CNC(=O)c1ccc(C#N)cc1)CC2 [5t]
